Test results taken from patent publication US8153683B2, “Methods of treatment using a prodrug of an excitatory amino acid” (Eli Lilly and Company, priority 2002, dated 2012).

Assay: In Vivo Exposure as Measured by Rat Plasma Concentration
Settings: Fischer 344 male rats, sum of the concentrations at 0.5 and 1 hour or at 1 and 3 hour, LC/MS/MS
Procedure: To study the in vivo exposure of compounds of Formula II following oral dosing of compounds of Formula I in comparison to compounds of Formula II, studies measuring the plasma concentrations of the respective compound of Formula II in rats are performed. Mature Fischer 344 male rats (190-270 gram) are obtained from Harlan Sprague-Dawley, Cumberland, Ind., USA, and acclimated in the study housing for 3 days. […] Blood samples are collected through orbital sinus or cardiac puncture (last time point) at 0.5 and 1 hour or, alternatively, at 1 and 3 hours. Plasma samples are stored at −20° C. in the presence of phenylmethylsulfonyl fluoride, a protease inhibitor, prior to analysis. Plasma samples and internal standard compounds are pretreated by solid phase extraction (SAX support, methanol/water/dilute acetic acid).
As shown in Tables 1A and 1B below, the plasma concentrations (ng/ml) of the respective compound of Formula II for each test compound are determined by LC/MS/MS and are presented as a sum of the concentrations at the 0.5 and 1 hour or, alternatively, at the 1 and 3 hour sample time points.

| Structure (SMILES) | Rat Exposure (ng/ml of (1R,2S,4R,5R,6R)-2-(2′S-Aminopropionyl)amino-4-fluorobicyclo[3.1.0]hexane-2,6-dicarboxylic acid hydrochloride) (following 5 mg/kg p.o.) | Rat Exposure (ng/ml of (1R,4S,5S,6S)-4-(2′S-Aminopropionyl)amino-]-2,2-dioxo-2λ^6-thia-bicyclo[3.1.0.]hexane-4,6-dicarboxylic acid hydrochloride) (following 5 mg/kg p.o.) | Rat Exposure (ng/ml of (1R,2S,4R,5R,6R)-2-(2′S-Aminopropionyl)amino-4-fluorobicyclo[3.1.0]hexane-2,6-dicarboxylic acid hydrochloride) (following 10 mg/kg p.o.) |
| --- | --- | --- | --- |
| C[C@H](N)C(=O)N[C@@]1(C(=O)O)C[C@@H](F)[C@H]2[C@H](C(=O)O)[C@H]21.Cl [Example 14, (1R,2S,4R,5R,6R)-2-(2′S-Amino-propionyl)amino-4-fluorobicyclo[3.1.0]hexane-2,6-dicarboxylic acid hydrochloride] | 5271 ng/ml (following 5 mg/kg p.o.) | – | – |
| N[C@@]1(C(=O)O)CS(=O)(=O)[C@H]2[C@H](C(=O)O)[C@H]21 [Non-prodrug form of Example 1, (1R,4S,5S,6S)-4-Amino-2,2-dioxo-2λ^6-thia-bicyclo[3.1.0]hexane-4,6-dicarboxylic acid] | – | 1521 ng/ml (following 5 mg/kg p.o.) | – |
| N[C@@]1(C(=O)O)C[C@@H](F)[C@H]2[C@H](C(=O)O)[C@H]21 [Non-prodrug form of Example 14, 1R,2S,4R,5R,6R-2-amino-4-fluorobicyclo[3.1.0]hexane-2,6-dicarboxylic acid] | 1162 ng/ml (following 5 mg/kg p.o.) | – | 1342 ng/ml (following 10 mg/kg p.o.) |
